# According to PMC2151269, “Broad phase II and pharmacokinetic study of methoxy-morpholino doxorubicin (FCE 23762-MMRDX) in non-small-cell lung cancer, renal cancer and other solid tumour patients” (British Journal of Cancer, 1998):
# Where “and” joins values, the source holds several entries; their conditions need not be identical. Equal values may be shown once.
# Key:
# [1] = test system: metastatic or unresectable solid tumour patients; experiment: Haematological toxicity (CTC grading, blood cell counts) in broad phase II study; format: in vivo, human; settings: for Cycles (%) with anaemia / Cycles (%) with leucopenia / Cycles (%) with neutropenia / Cycles (%) with thrombocytopenia: n = 126 cycles; for Median platelet nadir: 26 patients who received at least three cycles
# Excerpt: (§1) British Jourmal of Cancer (1998) 77(1), 139-146 ? 1998 Cancer Research Campaign Broad phase 11 and pharmacokinetic study of methoxy-morpholino doxorubicin (FCE 23762-MMRDX) in non-small-cell lung cancer, renal cancer and other solid tumour patients M Bakker', JP Droz2, AR Hanauske3, J Verweij4, AT van Oosterom5, HJM Groen', MA Pacciarini6, L Domenigoni6, F van Weissenbruch', E Pianezzola6 and EGE de Vries' 'University Hospital Groningen, The Netherlands; 2Centre L6on Berard, Lyon, France; 3Med. […] Patients received a maximum of six cycles. […] Limitations of the clinical value of anthracyclines are their toxicity profile, especially irreversible, dose-related cardiotoxicity, and intrinsic or acquired tumour resis- tance. Various mechanisms play a role in tumour cell resistance to anthracyclines, including overexpression of drug efflux pumps such as P-glycoprotein, decreased levels of the target enzyme topoisomerase II, and an increase in cellular detoxifying capacity (Kaye and Merry, 1985; Deffie et al, 1989; De Jong et al, 1990; Ford and Hait, 1990; Meijer et al, 1990; Zaman et al, 1994). The morpholinyl anthracyclines have been developed in the course of research aimed at identifying new anthracyclines with at least partially novel modes of action in addition to activity against resis- tant tumours (Acton et al, 1984). […] Box 30.001, 9700 RB Groningen, The Netherlands (Figure 1).
# [2] = test system: metastatic or unresectable solid tumour patients; experiment: Non-haematological toxicity (CTC grading) in broad phase II study; format: in vivo, human; settings: for Percentage of cycles with alopecia / Percentage of cycles with diarrhoea / Percentage of cycles with fatigue/malaise / Percentage of cycles with liver toxicity, ALAT / Percentage of cycles with liver toxicity, ASAT / Percentage of cycles with nausea / Percentage of cycles with stomatitis / Percentage of cycles with vomiting / Percentage of cycles with liver toxicity, bilirubin: 132 evaluable cycles
# Excerpt: as §1
# [3] = test system: left ventricular ejection fraction (LVEF); experiment: Cardiac toxicity: LVEF by MUGA scan or echocardiography; format: in vivo, human
# Excerpt: as §1
# [4] = test system: NSCLC, renal cell cancer, head and neck cancer, cervix carcinoma, ACUP; experiment: Tumour response according to WHO criteria; format: in vivo, human
# Excerpt: as §1
# [5] = Plasma pharmacokinetics, cycle 1 (HPLC with fluorescence detection); format: in vivo, human
# Excerpt: as §1
# [6] = Leucocyte (cellular) drug levels 2 and 24 h after injection; format: in vivo, human; settings: for Leucocyte MMRDX levels, median: n = 6, per l cell volume
# Excerpt: as §1
# [7] = Urinary excretion up to 96 h; format: in vivo, human
# Excerpt: as §1
# solid tumour patients = test system: solid tumour patients; design: method as in Vasey et al, 1995; settings: i.v. bolus every 3 weeks, phase I study; ref Vasey et al, 1995; cited from earlier work
# [8] = test system: solid tumours in animal models; design: method as in Grandi et al, 1990; Ripamonti et al, 1992; settings: similar activity by intraperitoneal, i.v. or oral route; ref Grandi et al, 1990; Ripamonti et al, 1992; cited from earlier work
# [9] = 132 cycles, 48 patients, 1.5 mg m-2 i.v. bolus every 4 weeks
# [10] = CTC Grade I, 1.5 mg m-2 i.v. bolus every 4 weeks
# [11] = CTC Grade II, 1.5 mg m-2 i.v. bolus every 4 weeks
# [12] = CTC Grade III, 1.5 mg m-2 i.v. bolus every 4 weeks
# [13] = CTC Grade IV, 1.5 mg m-2 i.v. bolus every 4 weeks
# [14] = out of 131 cycles, despite intensive prophylactic antiemetic treatment
# [15] = plasma, three-compartmental model, first cycle, 11 patients, 1.5 mg m-2 i.v.
smiles,measurement,setting,value
"COc1cccc2c1C(=O)c1c(O)c3c(c(O)c1C2=O)C[C@@](O)(C(=O)CO)C[C@@H]3O[C@H]1C[C@H](N2CCO[C@H](OC)C2)[C@H](O)[C@H](C)O1 [MMRDX, methoxymorpholino-doxorubicin]",Patients hospitalized for neutropenic fever,[1]; 47 patients evaluable for haematological toxicity,Seven
same,"CTC grade III/IV neutropenia, % of cycles",[1]; [9],27%
same,"CTC grade III/IV thrombocytopenia, % of cycles",[1]; [9],12%
same,Cycles (%) with anaemia,[1]; [10],37%
same,Cycles (%) with leucopenia,[1]; [10],17%
same,Cycles (%) with neutropenia,[1]; [10],13%
same,Cycles (%) with thrombocytopenia,[1]; [10],11%
same,Cycles (%) with anaemia,[1]; [11],31%
same,Cycles (%) with leucopenia,[1]; [11],23%
same,Cycles (%) with neutropenia,[1]; [11],20%
same,Cycles (%) with thrombocytopenia,[1]; [11],6%
same,Cycles (%) with anaemia,[1]; [12],5%
same,Cycles (%) with leucopenia,[1]; [12],19%
same,Cycles (%) with neutropenia,[1]; [12],18%
same,Cycles (%) with thrombocytopenia,[1]; [12],6%
same,Cycles (%) with anaemia,[1]; [13],0%
same,Cycles (%) with leucopenia,[1]; [13],6%
same,Cycles (%) with neutropenia,[1]; [13],9%
same,Cycles (%) with thrombocytopenia,[1]; [13],6%
same,Median (range) nadir haemoglobin,"[1]; Cycle 1, n=47",110(69-147) g l-1
same,Median (range) nadir leucocytes,"[1]; Cycle 1, n=47",3.0 (0.1-9.1) x 109 l-1
same,Median (range) nadir neutrophils,"[1]; Cycle 1, n=47",1.4 (<0.1-5.8) x 109 l-1
same,Median (range) nadir platelets,"[1]; Cycle 1, n=47",178 (8-449) x 109 l-1
same,Median (range) nadir platelets,"[1]; Cycles 2-6, n=80",117 (9-372) x 109 l-1
same,Median (range) nadir neutrophils,"[1]; Cycles 2-6, n=81",1.7 (< 0.1-6.8) x 109 l-1
same,Median (range) nadir haemoglobin,"[1]; Cycles 2-6, n=82",103 (69-153) g l-1
same,Median (range) nadir leucocytes,"[1]; Cycles 2-6, n=82",3.0 (0.1-9.8) x 109 l-1
same,Median platelet nadir,[1]; cycle 1,1.78e+11 L⁻¹
same,Median platelet nadir,[1]; cycle 2,1.45e+11 L⁻¹
same,Median platelet nadir,[1]; cycle 3,1.08e+11 L⁻¹
same,Median platelet nadir,[1]; cycle 4,1.06e+11 L⁻¹
same,Median platelet nadir,[1]; cycle 5,9e+10 L⁻¹
same,Median platelet nadir,[1]; cycle 6,1.17e+11 L⁻¹
same,Septic death,"[1]; day 14 of cycle 2, grade IV neutropenia",one
same,Day of platelet nadir,[1]; day of cycle,22 day and 22 (range 7-36) day
same,Median day of neutrophil nadir,[1]; day of cycle,22 day and 22 (range 6-36) day
same,Total number of hospital admissions for haematological toxicity,[1]; excluding admission for blood cell transfusion,eight
same,Cycles with dose adjustments for haematological toxicity,[1]; in eight patients,19%
same,Cycles delayed for haematological toxicity,[1]; in vivo,29%
same,Median duration of grade IV neutropenia,[1]; range 1-14,7 days
same,Median time to recovery from platelet nadir to > 100 x 109 l-1,[1]; range 1-20,7 days
same,Median time to recovery from neutrophil nadir to > 2 x 109 l-1,[1]; range 2-22,7 days
same,Median duration of grade IV thrombocytopenia,[1]; range 3-19,11 days
same,"Late and prolonged nausea > or = grade II, % of cycles",[2]; 132 cycles,34%
same,"Vomiting > or = grade II, % of cycles",[2]; 132 cycles,39%
same,Cycles with transient elevation of ALAT,[2]; % of cycles,71%
same,Cycles with transient elevation of ASAT,[2]; % of cycles,64%
same,Percentage of cycles with alopecia,[2]; CTC Grade I,10%
same,Percentage of cycles with diarrhoea,[2]; CTC Grade I,7%
same,Percentage of cycles with fatigue/malaise,[2]; CTC Grade I,24%
same,"Percentage of cycles with liver toxicity, ALAT",[2]; CTC Grade I,37%
same,"Percentage of cycles with liver toxicity, ASAT",[2]; CTC Grade I,46%
same,Percentage of cycles with nausea,[2]; CTC Grade I,43%
same,Percentage of cycles with stomatitis,[2]; CTC Grade I,11%
same,Percentage of cycles with vomiting,[2]; CTC Grade I,24%
same,Percentage of cycles with alopecia,[2]; CTC Grade II,1.5%
same,Percentage of cycles with diarrhoea,[2]; CTC Grade II,1%
same,Percentage of cycles with fatigue/malaise,[2]; CTC Grade II,22%
same,"Percentage of cycles with liver toxicity, ALAT",[2]; CTC Grade II,27%
same,"Percentage of cycles with liver toxicity, ASAT",[2]; CTC Grade II,16%
same,"Percentage of cycles with liver toxicity, bilirubin",[2]; CTC Grade II,12%
same,Percentage of cycles with nausea,[2]; CTC Grade II,27%
same,Percentage of cycles with stomatitis,[2]; CTC Grade II,1%
same,Percentage of cycles with vomiting,[2]; CTC Grade II,30%
same,Percentage of cycles with diarrhoea,[2]; CTC Grade III,1%
same,Percentage of cycles with fatigue/malaise,[2]; CTC Grade III,7%
same,"Percentage of cycles with liver toxicity, ALAT",[2]; CTC Grade III,7%
same,"Percentage of cycles with liver toxicity, ASAT",[2]; CTC Grade III,2%
same,"Percentage of cycles with liver toxicity, bilirubin",[2]; CTC Grade III,0%
same,Percentage of cycles with nausea,[2]; CTC Grade III,7%
same,Percentage of cycles with stomatitis,[2]; CTC Grade III,1%
same,Percentage of cycles with vomiting,[2]; CTC Grade III,4%
same,Percentage of cycles with diarrhoea,[2]; CTC Grade IV,0%
same,Percentage of cycles with fatigue/malaise,[2]; CTC Grade IV,5%
same,"Percentage of cycles with liver toxicity, ALAT",[2]; CTC Grade IV,0%
same,"Percentage of cycles with liver toxicity, ASAT",[2]; CTC Grade IV,0%
same,"Percentage of cycles with liver toxicity, bilirubin",[2]; CTC Grade IV,1%
same,Percentage of cycles with stomatitis,[2]; CTC Grade IV,0%
same,Percentage of cycles with vomiting,[2]; CTC Grade IV,5%
same,"Fatigue grade I-III, % of cycles",[2]; considered as drug-related,53%
same,"Alopecia grade I or II, % of cycles",[2]; in vivo,11%
same,Cumulative liver toxicity,[2]; in vivo,No cumulative liver toxicity was observed
same,Cycles with CTC toxicity >= grade I of ALAT,[2]; in vivo,87 cycles
same,Cycles with CTC toxicity >= grade I of ASAT,[2]; in vivo,78 cycles
same,Cycles with CTC toxicity >= grade I of bilirubin,[2]; in vivo,15 cycles
same,Cycles with CTC toxicity >= grade III of ALAT,[2]; in vivo,nine
same,Cycles with CTC toxicity >= grade III of ASAT,[2]; in vivo,two
same,Cycles with CTC toxicity >= grade III of bilirubin,[2]; in vivo,one
same,"Grade I-II diarrhoea, % of cycles",[2]; in vivo,8%
same,"Grade I-II stomatitis, % of cycles",[2]; in vivo,11%
same,"Local phlebitis at the injection site, renal toxicity, neurotoxicity",[2]; in vivo,Neither local phlebitis at the injection site nor renal or neuro- toxicity were observed
same,Median day of onset of nausea,[2]; in vivo,3 (range 1-17) day
same,Median day of onset of vomiting,[2]; in vivo,3 (range 1-22) day
same,Patients hospitalized for nausea/vomiting,[2]; in vivo,Five
same,"Nausea and vomiting grade III-IV, % of cycles","[2]; in vivo, iv",9%
same,Day of maximum transient elevations of ASAT and ALAT,[2]; lasting approximately one week,8 days
same,Patients with alopecia grade I or II,[2]; only one grade II,Nine
same,Cycles with nausea,[2]; [14],100 cycles
same,Cycles with vomiting,[2]; [14],82 cycles
same,"Transient transaminases elevation grade III/IV, % of cycles","[2]; printed '> grade III/IV', 132 cycles",7%
same,Median hospitalization duration for nausea/vomiting,[2]; range 1-7,4 days
same,Median duration of vomiting,[2]; range 1-28,3 days
same,Median duration of nausea,[2]; range 1-38,7 days
same,Median day of recovery of ASAT to normal values,[2]; range 8-26,15 days
same,Median day of recovery of ALAT to normal values,[2]; range 8-36,15 days
same,Patients with left ventricular ejection fraction reduced >= 15%,[3]; 26 patients evaluable for cardiac toxicity,two
same,Decrease in LVEF,"[3]; one patient with head and neck cancer, after three cycles, cumulative dose 4.5 mg m-2",15%
same,Cardiotoxicity,[3]; overall conclusion of the study,No clear signs of cardiotoxicity were observed
same,Decrease in LVEF,"[3]; second patient (NSCLC), echocardiography, after four cycles, cumulative dose 6 mg m-2",17%
same,Efficacy in NSCLC and renal cell cancer,[4]; NSCLC (20 evaluable patients) and renal cell cancer (18 evaluable patients),ineffective
same,Patients with partial response,"[4]; NSCLC patient with retroperitoneal metastases, forty-three patients evaluable for tumour response",One
same,Patients with progressive disease,[4]; forty-three patients evaluable,Twenty-five
same,Patients with stable disease,[4]; forty-three patients evaluable,17 patients
same,Duration of partial response,[4]; one NSCLC patient,17 weeks
same,"Terminal half-life relative to epirubicin t1/2,z","[5]; epirubicin value ref Camaggi et al, 1988",1.6 fold
same,Interindividual coefficient of variation,[5]; on the basis of AUC calculated up to infinite time,about 20%
same,"Plasma clearance, mean ± s.d.","[5]; plasma, 11 patients, 1.5 mg m-2 i.v.",37.2 +/- 7.3 l h-1 m-2
same,"AUC0-infinity, mean ± s.d.","[5]; plasma, n = 11, 1.5 mg m-2 i.v., linear trapezoidal rule",20.4 ± 6.2 ng·h/mL
same,Half-life of the first phase,"[5]; plasma, three-compartmental model, 11 patients, 1.5 mg m-2 i.v.",4 min
same,"t1/2,beta (second phase), mean ± s.d.",[5]; [15],2.4 h
same,"t1/2,gamma (third phase), mean ± s.d.",[5]; [15],49 h
same,Mean leucocyte concentration relative to corresponding plasma concentration,[6]; 2 h after infusion,650 fold
same,"Leucocyte MMRDX levels, median",[6]; 2 h after infusion,414 µg/L
same,Mean leucocyte concentration relative to corresponding plasma concentration,[6]; 24 h after infusion,400 fold
same,"Leucocyte MMRDX levels, median",[6]; 24 h after infusion,174 µg/L
same,Renal clearance,[7]; in vivo,about 1.8 l h-1
same,"Urinary excretion of the unchanged drug, % of the administered dose","[7]; urine collection up to 96 h, nine patients",2%
same,Maximum-tolerated dose,solid tumour patients,1.5 mg m-2
same,Effectiveness in solid tumours in animal models,[8],as effective as doxorubicin
